Experimental findings from PubChem BioAssay (NCI) are described below.

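All cell lines were grown in 96-well plates and treated with compound for 48 hours. GI50 = concentration required for 50% inhibition of growth. TGI denotes the concentration required for complete inhibition of growth.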 Some results are limits rather than exact numbers.

Holding throughout (assay): inhibition of tumour cell growth, NCI panel, 48 h
The test system of experiment [1] is SF-539 CNS.
The test system of experiment [2] is RXF 393 renal.
Experiment [3] deals with SF-295 CNS.
Experiment [4] concerns MCF7 breast.
Experiment [5] concerns OVCAR-4 ovarian.
The subject of experiment [6] is 786-0 renal.
Experiment [7] concerns COLO 205 colon.
For experiment [8], the system named is HS 578T breast.
For experiment [9], the system named is K-562 leukemia.
In experiment [10] the test system is SR leukemia.

Turning to `Nc1ncnc2c1nc(N)n2C1OC(CO)C(O)C1O` (stereo not given), the GI50 in experiment [1] is 1.88 µM; in experiment [2] it was 1.45 µM; in experiment [3], 1.78 µM; in experiment [4], 0.389 µM; in experiment [5], 1.42 µM; in experiment [6], 1.55 µM. Besides, the GI50 in [7] was 0.142 µM; in experiment [8], 2.45 µM; in [9], 0.271 µM; in experiment [10], 0.524 µM. Besides, the TGI in experiment [1] was determined as 3.98 µM; in experiment [2], 3.36 µM; in [3], 6.09 µM; in [4], 10.4 µM; in experiment [5], 7.16 µM; in experiment [6], 3.71 µM. Further, the TGI was 1.16 µM in experiment [7], > 28.4 µM in experiment [8], > 100 µM in experiment [9] and 4.38 µM in experiment [10].

With `Oc1[nH]c2ccc(Cl)cc2c1/C=c1/ccc2c(c1)N=C(c1ccc(C(F)(F)F)cc1)N=2`, the GI50 in [1] was 2.51 µM; in experiment [2], 1.88 µM; in experiment [3], 1.87 µM; in [4], 2.25 µM; in [5], 2.73 µM; in experiment [6] it was 1.75 µM. For the same compound, the GI50 is 2.1 µM in experiment [7], 2.4 µM in [8], 2.6 µM in [9] and 2.43 µM in [10]. Besides, the TGI in experiment [1] was determined as 6.65 µM; in [2], 3.76 µM; in experiment [3], 5.04 µM; in experiment [4] it was 7.64 µM; in experiment [5] it was 11.4 µM; in [6], 3.31 µM. Besides, the TGI stood at 4.13 µM in [7], 6.86 µM in experiment [8], 7.73 µM in [9] and 5.38 µM in experiment [10].

In the case of `O=[N+]([O-])c1ccc(Oc2cccc(C(F)(F)F)c2)c([N+](=O)[O-])c1`, the GI50 in experiment [1] was 3.05 µM; in experiment [2] it was 2.61 µM; in [3], 2.87 µM; in [4], 2.81 µM; in experiment [5] it was 3 µM; in experiment [6], 3.24 µM. Moreover, the GI50 in [7] was 2.64 µM; in [8], 3.99 µM; in experiment [9], 0.303 µM; in [10] it was 0.286 µM. For the same compound, the TGI in experiment [1] came out at 11.5 µM; in experiment [2], 7.87 µM; in [3], 11.3 µM; in [4], 8.33 µM; in [5] it was 19.9 µM; in experiment [6], 9.81 µM. The TGI in experiment [7] was determined as 6.04 µM; in experiment [8], 32 µM; in experiment [9] it was 9.59 µM; in experiment [10], 1.82 µM.

Take `O=C1c2ccccc2-c2c1c1c(O)cccc1n2CCCc1ccccc1`: the GI50 in experiment [1] is 23.1 µM; in experiment [2] it was 5.87 µM; in experiment [3], 7.33 µM; in experiment [4] it was 48.4 µM; in experiment [5], 87.7 µM; in experiment [6], 21 µM. Moreover, the GI50 was 17.8 µM in [7], 41.7 µM in experiment [8], 22.7 µM in experiment [9] and 4.05 µM in experiment [10]. Also, the TGI was > 100 µM in experiment [1]; 68.5 µM in [2]; > 100 µM in experiment [3]; > 100 µM in [4]; > 100 µM in experiment [5]; 99.3 µM in experiment [6]. For the same compound, the TGI in [7], in [8], in experiment [9] and in [10] was > 100 µM throughout.

Consider `Cc1ccc2c(n1)C(=O)C(Cl)=C(Nc1ccc(N3CCN(C)CC3)cc1)C2=O`, for which the GI50 in experiment [1] is 1.74 µM; in [2], 1.67 µM; in experiment [3] it was 18 µM; in experiment [4] it was 2.04 µM; in experiment [5] it was 1.5 µM; in experiment [6], 1.71 µM. Moreover, the GI50 in experiment [7] is 1.77 µM; in experiment [8], 2.47 µM; in experiment [9], 2.72 µM; in [10], 2.78 µM. For the same compound, the TGI in experiment [1] was determined as 3.22 µM; in experiment [2], 3.05 µM; in [3], 32.3 µM; in [4], 5.17 µM; in [5], 2.87 µM; in experiment [6] it was 3.1 µM. The TGI in [7] was found to be 3.27 µM; in experiment [8], 7.49 µM; in [9], 8.92 µM; in experiment [10], 9.06 µM.

With `C=C1C(=O)O[C@H]2[C@H]1CC/C(COC(=O)c1cccc3ccccc13)=C\CC[C@@]1(C)O[C@@H]21`, the GI50 in [1] is 1.29 µM; in experiment [2], 1.05 µM; in experiment [3], 2.47 µM; in [4], 0.722 µM; in experiment [5], 1.7 µM; in experiment [6], 1.69 µM. In addition, the GI50 was 1.64 µM in [7], 1.98 µM in [8], 1.98 µM in [9] and 0.363 µM in experiment [10]. Moreover, the TGI was determined as 2.7 µM in [1]; 2.32 µM in [2]; 10.2 µM in [3]; 2.84 µM in experiment [4]; 3.43 µM in [5]; 3.22 µM in experiment [6]. Besides, the TGI is 3.16 µM in experiment [7], 6.01 µM in experiment [8], 14.7 µM in [9] and > 100 µM in experiment [10].
